The species named for assay [1] is Rattus norvegicus. Put plainly: Effect on the wound healing in rats at 7th postoperative day by measuring tensile strength of skin strips from the wound segments. Type of assay: functional.
The species entered for assay [2] is Rattus norvegicus. The assay is described as follows: Tested for its effect on the wound healing in rats at 7th postoperative day by measuring tensile strength of skin strips from the wound segments; value relative to control(100). It is filed as functional.

`COCCOCOC(=O)[C@]12CC[C@@H](C)[C@H](C)C1C1=CCC3[C@@]4(C)C[C@@H](O)[C@H](O)[C@@](C)(CO)C4CC[C@@]3(C)[C@]1(C)CC2` (stereo not given in full) registered a Tensile strength in the assay listed under Rattus norvegicus [1] of 398 g cm**-2. The Relative value in the assay filed under Rattus norvegicus [2] is given as 139.
`CCCCOC(C)OC(=O)[C@]12CC[C@@H](C)[C@H](C)C1C1=CCC3[C@@]4(C)C[C@@H](O)[C@H](O)[C@@](C)(CO)C4CC[C@@]3(C)[C@]1(C)CC2` (stereo not given in full): the Tensile strength in the assay listed under Rattus norvegicus [1] is listed as 362 g cm**-2. Further, the Relative value in the assay filed under Rattus norvegicus [2] was 126.
`C[C@@H]1CC[C@]2(C(=O)O)CC[C@]3(C)C(=CCC4[C@@]5(C)C[C@@H](O)[C@H](O)[C@@](C)(CO)C5CC[C@]43C)C2[C@H]1C` (stereo not given in full) showed a Tensile strength in the assay listed under Rattus norvegicus [1] of 418 g cm**-2. Also, the Relative value in the assay filed under Rattus norvegicus [2] amounted to 146.
Consider `C[C@@H]1CC[C@]2(C(=O)OC3CCCCO3)CC[C@]3(C)C(=CCC4[C@@]5(C)C[C@@H](O)[C@H](O)[C@@](C)(CO)C5CC[C@]43C)C2[C@H]1C` (stereo not given in full), for which the Tensile strength in the assay listed under Rattus norvegicus [1] turned out to be 481 g cm**-2. For the same compound, in the assay filed under Rattus norvegicus [2], the Relative value is 168.
`COCOC(=O)[C@]12CC[C@@H](C)[C@H](C)C1C1=CCC3[C@@]4(C)C[C@@H](O)[C@H](O)[C@@](C)(CO)C4CC[C@@]3(C)[C@]1(C)CC2` (stereo not given in full) gave a Tensile strength in the assay listed under Rattus norvegicus [1] of 404 g cm**-2. The same compound came in with a Relative value in the assay filed under Rattus norvegicus [2] of 141.
As for `CC(=O)OC[C@@]1(C)C2CC[C@]3(C)C(CC=C4C5[C@@H](C)[C@H](C)CC[C@]5(C(=O)OC5CCCCO5)CC[C@]43C)[C@@]2(C)C[C@@H](OC(C)=O)[C@@H]1OC(C)=O` (stereo not given in full), the Tensile strength in the assay listed under Rattus norvegicus [1] stood at 393 g cm**-2. In the assay filed under Rattus norvegicus [2], the Relative value was determined as 173.
The compound `CCOCOC(=O)[C@]12CC[C@@H](C)[C@H](C)C1C1=CCC3[C@@]4(C)C[C@@H](O)[C@H](O)[C@@](C)(CO)C4CC[C@@]3(C)[C@]1(C)CC2` (stereo not given in full) displayed a Tensile strength in the assay filed under Rattus norvegicus [1] of 476 g cm**-2. Also, the Relative value in the assay filed under Rattus norvegicus [2] is 166.
With `COCCOCOC(=O)[C@]12CC[C@@H](C)[C@H](C)C1C1=CCC3[C@@]4(C)C[C@@H](OC(C)=O)[C@H](OC(C)=O)[C@@](C)(COC(C)=O)C4CC[C@@]3(C)[C@]1(C)CC2` (stereo not given in full), the Tensile strength in the assay listed under Rattus norvegicus [1] is 320 g cm**-2. In the assay listed under Rattus norvegicus [2], the Relative value stood at 141.
Take `CCOCOC(=O)[C@]12CC[C@@H](C)[C@H](C)C1C1=CCC3[C@@]4(C)C[C@@H](OC(C)=O)[C@H](OC(C)=O)[C@@](C)(COC(C)=O)C4CC[C@@]3(C)[C@]1(C)CC2` (stereo not given in full): the Tensile strength in the assay listed under Rattus norvegicus [1] stood at 487 g cm**-2. In the assay filed under Rattus norvegicus [2], this compound gave a Relative value of 215.
For the compound `CCOC(C)OC(=O)[C@]12CC[C@@H](C)[C@H](C)C1C1=CCC3[C@@]4(C)C[C@@H](O)[C@H](O)[C@@](C)(CO)C4CC[C@@]3(C)[C@]1(C)CC2` (stereo not given in full), the Tensile strength in the assay filed under Rattus norvegicus [1] is 387 g cm**-2. In the assay listed under Rattus norvegicus [2], this compound had a Relative value of 135.
In the case of `C[C@@H]1CC[C@]2(C(=O)OCOCc3ccccc3)CC[C@]3(C)C(=CCC4[C@@]5(C)C[C@@H](O)[C@H](O)[C@@](C)(CO)C5CC[C@]43C)C2[C@H]1C` (stereo not given in full), the Tensile strength in the assay filed under Rattus norvegicus [1] was found to be 327 g cm**-2. This compound also showed a Relative value in the assay filed under Rattus norvegicus [2] of 114.
For `COCOC(=O)[C@]12CC[C@@H](C)[C@H](C)C1C1=CCC3[C@@]4(C)C[C@@H](OC(C)=O)[C@H](OC(C)=O)[C@@](C)(COC(C)=O)C4CC[C@@]3(C)[C@]1(C)CC2` (stereo not given in full), in that order: 330 g cm**-2 and 145.
For `CC(=O)OC[C@@]1(C)C2CC[C@]3(C)C(CC=C4C5[C@@H](C)[C@H](C)CC[C@]5(C(=O)OC5CCCO5)CC[C@]43C)[C@@]2(C)C[C@@H](OC(C)=O)[C@@H]1OC(C)=O` (stereo not given in full), the Tensile strength in the assay listed under Rattus norvegicus [1] turned out to be 331 g cm**-2. In addition, the Relative value in the assay listed under Rattus norvegicus [2] came out at 145.
The compound `CCCCCCCCOCOC(=O)[C@]12CC[C@@H](C)[C@H](C)C1C1=CCC3[C@@]4(C)C[C@@H](OC(C)=O)[C@H](OC(C)=O)[C@@](C)(COC(C)=O)C4CC[C@@]3(C)[C@]1(C)CC2` (stereo not given in full) had a Tensile strength in the assay listed under Rattus norvegicus [1] of 310 g cm**-2. Also, the Relative value in the assay filed under Rattus norvegicus [2] is listed as 137.
In the assay filed under Rattus norvegicus [1], `CCCCCCCCOCOC(=O)[C@]12CC[C@@H](C)[C@H](C)C1C1=CCC3[C@@]4(C)C[C@@H](O)[C@H](O)[C@@](C)(CO)C4CC[C@@]3(C)[C@]1(C)CC2` (stereo not given in full) gave a Tensile strength of 468 g cm**-2. The Relative value in the assay listed under Rattus norvegicus [2] turned out to be 163.

Values taken from ChEMBL document CHEMBL1128947, “Asiaticoside mimetics as wound healing agent” (1996).
